Source: patent US6596288B2, “Use of sterols as active ingredient in a cosmetic composition against adiposity” (Codif International SA, priority 2000, dated 2003)

How the values were obtained:
[1] = system: human adipocytes; experiment: liberation of NEFA (non-esterified fatty acids) (LIPOLYSIS) by isolated human adipocytes; type: cell-based; settings: for % Control (NEFA liberation) / Average of the NEFA: 2 hours at 37° C.
Procedure: (§1) In these experiments, adipocytes were isolated from abdominal restorative surgeries sampled in women. The experiment took place the day of the sampling. Fragments of adipose tissues were incubated for 30 minutes at 37° C. in the presence of collagenase, then the isolated adipocytes were washed and taken up in medium MEM buffered with bicarbonate, in the presence of antibiotics (penicillin/streptomycin), glutamine (2 mM), and delipidated bovine serum albumin (0.5%).
As to the tests concerning the effect on lipolysis, they were conducted in the following manner. Adipocytes (540 μl of suspension) were incubated for 2 hours in a water bath at 37° C., with agitation, in the presence of 60 μl of different sterols. The experiments were carried out in triplicate.
Then, the non-esterified fatty acids (AGNE) released by the adipocytes were determined in the sub-adipocyte media. The values obtained were treated by an analysis of variance (ANOVA) by means of the multiple comparison test of Dunnett. The values were considered as significant when the probability p was less than the threshold of significance 0.05.

[2] = system: human adipocytes; experiment: incorporation of [2-14C]-acetate into lipids (LIPOGENESIS) by isolated human adipocytes; type: cell-based; settings: for % control (incorporation of acetate) / Average of cpm (incorporation of acetate) / cpm - t0 test (incorporation of acetate) / % inhibition (incorporation of acetate) / inhibition at 10 µM / inhibition at 100 µM / inhibition at 1000 µM: 4 h; for inhibition at 10 µM / inhibition at 100 µM / inhibition at 1000 µM: Homo sapiens, Adipocyte
Procedure: as §1
The tests concerning the effect on lipogenesis were then conducted in the following manner.
Adipocytes (90 μl of ¼ diluted suspension) were incubated for 1 hour, either with a control medium (4 hours), with molecules known to inhibit the neosynthesis of fatty acids (EPA), as for example […], or with previously diluted extracts (added under 100 μl).
As to the sterols and to the lipidic extracts of plants or algae, they were diluted in mineral oil which has been verified to not inhibit incorporation or extraction of adipocyte lipids. Then, 10 μl of [2^14C]-acetate, 50 μCi/ml, were added, and the samples were either cultivated at 37° C. in the presence of 5% CO2 for 4 additional hours, or immediately frozen at −80° C. (control t0).
At the times indicated, the samples were frozen at −80° C. The lipids were then extracted according to the method of Bligh and Dyer (extraction methanol/chloroform/water), then dried under nitrogen. The radioactivity incorporated was then counted by liquid scintillation.

[3] = 0.01 mM (10^−5 M), absence of insulin
[4] = 0.01 mM (10^−5 M), presence of insulin (1 nM)
[5] = 0.1 mM (10^−4 M), absence of insulin
[6] = 0.1 mM (10^−4 M), presence of insulin (1 nM)
[7] = 1 mM (10^−3 M), absence of insulin
[8] = 1 mM (10^−3 M), presence of insulin (1 nM)

Structure (SMILES): CC(C)NCC(O)c1ccc(O)c(O)c1 (centres unmarked) [Isoproterenol, isoproterenol, reference compound]
- stimulation of lipolysis ([1]; 1 μM, p<0.05): stimulated the lipolysis
- % Control (NEFA liberation) ([1]; 10^−6 M (1 μM)): 342%
- Average of the NEFA ([1]; 10^−6 M (1 μM)): 483 µM

Structure (SMILES): CC(C)[C@H](C)CC[C@@H](C)[C@H]1CC[C@H]2[C@@H]3CC=C4C[C@@H](O)CC[C@]4(C)[C@H]3CC[C@]12C [Campesterol, campesterol]
- incorporation of acetate by isolated human adipocytes (conclusion) [2]: inhibit the incorporation of acetate
- % control (incorporation of acetate) [2, 3]: 92%
- Average of cpm (incorporation of acetate) [2, 3]: 191817 cpm
- cpm - t0 test (incorporation of acetate) [2, 3]: 185352 cpm
- % control (incorporation of acetate) [2, 4]: 101%
- % inhibition (incorporation of acetate) [2, 4]: no significant effect
- Average of cpm (incorporation of acetate) [2, 4]: 243051 cpm
- cpm - t0 test (incorporation of acetate) [2, 4]: 236586 cpm
- % control (incorporation of acetate) [2, 5]: 90%
- Average of cpm (incorporation of acetate) [2, 5]: 188278 cpm
- cpm - t0 test (incorporation of acetate) [2, 5]: 181813 cpm
- % control (incorporation of acetate) [2, 6]: 85%
- Average of cpm (incorporation of acetate) [2, 6]: 206655 cpm
- cpm - t0 test (incorporation of acetate) [2, 6]: 200190 cpm
- % control (incorporation of acetate) [2, 7]: 74%
- Average of cpm (incorporation of acetate) [2, 7]: 156448 cpm
- cpm - t0 test (incorporation of acetate) [2, 7]: 149983 cpm
- % control (incorporation of acetate) [2, 8]: 48%
- Average of cpm (incorporation of acetate) [2, 8]: 119960 cpm
- cpm - t0 test (incorporation of acetate) [2, 8]: 113495 cpm
- inhibition at 10 µM [2, 3]: 8%
- inhibition at 10 µM [2, 4]: 0%
- inhibition at 100 µM [2, 5]: 10%
- inhibition at 100 µM [2, 6]: 15%
- inhibition at 1000 µM [2, 7]: 26%
- inhibition at 1000 µM [2, 8]: 52%
- % Control (NEFA liberation) ([1]; 10^−2 M): 118%
- Average of the NEFA ([1]; 10^−2 M): 167 µM
- % Control (NEFA liberation) ([1]; 10^−3 M (1 mM)): 98%
- Average of the NEFA ([1]; 10^−3 M (1 mM)): 138 µM
- % Control (NEFA liberation) ([1]; 10^−4 M): 109%
- Average of the NEFA ([1]; 10^−4 M): 155 µM
- % Control (NEFA liberation) ([1]; 10^−5 M): 99%
- Average of the NEFA ([1]; 10^−5 M): 140 µM
- % Control (NEFA liberation) ([1]; 10^−6 M (1 μM)): 117%
- Average of the NEFA ([1]; 10^−6 M (1 μM)): 166 µM
- stimulation of lipolysis ([1]; 10^−6 M, 10^−5 M, 10^−4 M, 10^−3 M and 10^−2 M): did not stimulate lipolysis

Structure (SMILES): CC/C=C\C/C=C\C/C=C\C/C=C\C/C=C\CCCC(=O)O [EPA, eicosapentanoic acid, reference compound]
- % control (incorporation of acetate) [2, 5]: 18%
- % inhibition (incorporation of acetate) [2, 5]: 82%
- Average of cpm (incorporation of acetate) [2, 5]: 43253 cpm
- cpm - t0 test (incorporation of acetate) [2, 5]: 36788 cpm
- % control (incorporation of acetate) [2, 6]: 38%
- % inhibition (incorporation of acetate) [2, 6]: 62%
- Average of cpm (incorporation of acetate) [2, 6]: 96244 cpm
- cpm - t0 test (incorporation of acetate) [2, 6]: 89779 cpm
- % control (incorporation of acetate) [2, 7]: 3%
- % inhibition (incorporation of acetate) [2, 7]: 97%
- Average of cpm (incorporation of acetate) [2, 7]: 1287 cpm
- cpm - t0 test (incorporation of acetate) [2, 7]: 6373 cpm
- % control (incorporation of acetate) [2, 8]: 3%
- % inhibition (incorporation of acetate) [2, 8]: 97%
- Average of cpm (incorporation of acetate) [2, 8]: 13384 cpm
- cpm - t0 test (incorporation of acetate) [2, 8]: 6919 cpm

Structure (SMILES): Cn1c(=O)c2[nH]cnc2n(C)c1=O [Theophylline, theophylline, reference compound]
- stimulation of lipolysis ([1]; 1 nM, p<0.05): stimulated the lipolysis
- % Control (NEFA liberation) ([1]; 10^−3 M (1 mM)): 390%
- Average of the NEFA ([1]; 10^−3 M (1 mM)): 551 µM
